According to patent US8168177B2, “Method of regulating mammalian target-of-rapamycin activity by interaction between phospholipase D and Rheb” (Postech Academy-Industry Foundation, priority 2006, dated 2012):

Tests used:
[1] = system: S6K1 phosphorylation; experiment: Leucine-induced S6K1 phosphorylation (Western blot); assay type: cell-based
Method: COS7 cells (ATCC, CRL-1651) were maintained in a 5% CO2 humidified atmosphere at 37° C. and fed DMEM supplemented with 10% bovine calf serum (HyClone). HEK293 cells (ATCC: CRL-1573) were fed DMEM supplemented with 10% fetal bovine serum (HyClone). Cells grown on tissue culture dishes were transiently transfected using LipofectAMINE, as described in “Park, J. B. et al. Cardiac phospholipase D2 localizes to sarcolemmal membranes and is inhibited by alpha-actinin in an ADP-ribosylation factor-reversible manner. J. Biol. Chem. 275, 21295-21301 (2000)” and “Lee, S. et al. Actin directly interacts with phospholipase D, inhibiting its activity. J. Biol. Chem. 276, 28252-28260 (2001)”, which are hereby incorporated by reference. Cells were allowed to express the recombinant proteins for 24 hr after transfection and then deprived of serum for additional 24 hr. The cells were then subjected to leucine deprivation, co-immunoprecipitation, or GST pull-down analysis. Leucine deprivation was performed as previously described 10 with minor modification. Briefly, cells were deprived of serum first for 24 hrs and then subjected to leucine deprivation in leucine-free RPMI 1640 medium. […]

[2] = system: interaction between mTOR and Rheb / mTOR signaling; experiment: IP analysis of HA-RhebQ64L transfected cells treated with 1-butanol, t-butanol, PA, rapamycin; assay type: cell-based
Method: (§1) After harvesting COS7 cells, total extracts were prepared by brief sonication in ice-cold lysis buffer (40 mM HEPES pH7.5, 120 mM NaCl, 1 mM EDTA, 10 mM pyrophosphate, 10 mM glycerophosphate, 50 mM NaF, 1.5 mM Na3VO4, 0.5% CHAPS, 1 mM PMSF, protease inhibitor cocktails). Clarified extracts were mixed with 2 μg of the respective antibodies. Then protein A-Sepharose beads were added to isolate the antibody complex. After four washings with lysis buffer, the final immunoprecipitates were washed once with wash buffer (50 mM HEPES pH7.5, 150 mM NaCl), and then subjected to SDS-PAGE using Hyperfilm (Amersham Pharmacia Biotech), nitrocellulose membranes (Watmann), Power supply (Amersham Pharmacia Biotech), Electrophoretic Transfer unit (Hoefer Scientific Instruments), and ECL™ (Amersham Pharmacia Biotech).
This example examined the speculation that PA could increase Rheb/mTOR binding and activate mTOR through PA-dependent conformational change of mTOR.

[3] = molecular target: T1, mTOR complex (Homo sapiens, UniProt P42345); experiment: In vitro binding of purified GST-Rheb to mTOR/raptor/PLD2 immunoprecipitate; details: PA 10 μM, GST-Rheb 40 nM, in the presence of GTPγS 100 μM (FIG. 13)
T1 construct: expressed in transfected cells; host or cells: The mTOR/raptor/PLD2 complex came from transfected mammalian cells; GST-Rheb was expressed in E. coli
Method: After incubation at 4° C. for 2 hr, the beads were washed and then subjected to SDS-PAGE. E. coli and COS7 cells were lysed with the lysis buffer used for the co-immunoprecipitation. Hexa-histidine (His6)-tagged PLD2 was purified from detergent extracts of baculovirus-infected Sf9 cells (Invitrogen) by chelating Sepharose affinity column chromatography, as previously described in Lee, S. et al. Actin directly interacts with phospholipase D, inhibiting its activity. J. Biol. Chem. 276, 28252-28260 (2001), which is hereby incorporated by reference. […] In vitro binding analysis was done in ice-cold lysis buffer (as used for the co-immunoprecipitation but including 10% glycerol).
HA-mTOR, myc-raptor, and PLD2 were transfected and resulting lysates were immunoprecipitated with anti-HA antibody.

[4] = system: mTOR pathway; details: cited from earlier work
[5] = system: interaction between PLD2 and mTOR; experiment: Co-IP of endogenous PLD2 with mTOR (anti-mTOR antibody); assay type: cell-based; details: rapamycin: mTOR inhibition; leucine: leucine-deprived COS7 and HEK293 cells (FIG. 17)
Method: as §1

[6] = molecular target: T2, PLD2 (Homo sapiens, UniProt O14939); experiment: In vivo PLD assay (PBt formation) in PLD2wt transfected cells; assay type: cell-based; details: leucine-free vs leucine-added media, 0.4% 1-butanol (FIG. 16)
T2 construct: expressed in transfected cells
Method: In vivo PLD activity was assayed by measuring the formation of phosphatidyl-butanol as described in “Lee, S. et al. Actin directly interacts with phospholipase D, inhibiting its activity. J. Biol. Chem. 276, 28252-28260 (2001)” and “Ha, S. H., Kim, D. H., Kim, I. S., Kim, J. H., Lee, M. N., Lee, H. J., Kim, J. H., Jang, S. K., Suh, P. G., Ryu, S. H. PLD2 forms a functional complex with mTOR/raptor to transduce mitogenic signals. Cell. Signal. 18 (2006) 2283-2291”, which are hereby incorporated by reference.
In brief, cells were loaded with [^3H]myristic acid (2 μCi/ml) for 8 hr and then washed twice with DMEM. Labeled cells were incubated with 0.4% butanol for 10 min to measure basal PLD activity. Total lipids were extracted with 1.2 ml of methanol:1M NaCl:chloroform (1:1:1 by volume) and then separated by thin-layer chromatography on silica gel plates. The amount of [^3H]phosphatidyl-butanol formed was expressed as a percentage of total [^3H]lipid to account for cell labeling efficiency differences.
Until now, the function of PLD2 in nutrient signaling has not been proposed. To this end, the importance of PLD2 in nutrient signaling was tested. […] Based on the result, PLD2 activity in response to nutrient levels was checked. PLD2^wt was transfected and allowed to express for 24 hr.

## CCCCO [1-butanol]
[1]; 1-butanol treatment
  stimulatory effect of leucine on S6K1: significantly reduced
[2]; 1-butanol 0.4%, HA-RhebQ64L cells serum deprived 24 hr (FIG. 12)
  interaction between mTOR and Rheb: attenuated

## CCCCCC(=O)OC[C@H](COP(=O)(O)O)OC(=O)CCCCC [PA, C-6 phosphatidic acid]
[3]
  GST-Rheb binding to mTOR complex: increased
[2]; C-6 PA 100 uM (FIG. 12)
  Rheb activation of mTOR signaling, rescue from 1-butanol-treated cells: essentially required
[4]; PLD1 expression lowered
  rescue of mTOR activity by PA: could rescue
[4]; PLD2 expression lowered
  activation of mTOR pathway by PA: could no longer activate

## CC(C)C[C@H](N)C(=O)O [leucine]
[5]
  interaction between PLD2 and mTOR: increased
[6]
  PLD2 activity (PBt formation): reversibly regulated

## PLD2 siRNA: 21-nucleotide siRNA duplex (SEQ ID NO: 9/10) corresponding to human PLD2 coding nucleotides 703-723 (chain 1 AAGAGGUGGCUGGUGGUGAAG; chain 2 CUUCACCACCAGCCACCUCUU; listed as RNA, chemistry not given here)
[1]; leucine deprivation 45 min, then leucine 15 min (0-100 μM FIG. 20; 100 μM FIG. 21)
  effect of leucine on S6K1 phosphorylation: completely downregulated
